{"source": "patent US20090233307A1", "about": "“METHODS FOR DETECTION OF SINGLE STRAND BREAKS IN DNA” (The University of North Carolina at Chapel Hill, priority 2008, published 2009)", "key": {"DT40 cells [1]": {"system": "DT40 cells", "experiment": "SSB repair through NAD(P)H depletion, DT40 cells", "format": "cell-based, chicken", "conditions": "1 mM MMS for up to 4 hours, DT40 cells", "method": "SSB repair capacity was determined by a real-time colorimetric assay that measures intracellular NAD(P)H levels (Tano et al., DNA Repair, 6, 869-875 (2007)). PARP-1 activation during SSB repair leads to NAD^+ consumption, which can be indirectly monitored through NAD(P)H depletion (Nakamura et al., Nucleic Acids Res., 31, e104 (2003)). Briefly, 5×10^3 cells/well were seeded into a 96-well plate. After a 30 minute incubation period, the cells were treated with 1 mM MMS quickly followed by the addition of a dye containing XTT (Sigma) and 1-methoxy PMS (Sigma). For up to 4 hours, the NAD(P)H-dependent conversion of the XTT tetrazolium salt to a yellow colored formazan dye was measured spectrophotometrically. Decreases in intracellular NAD(P)H levels were determined through comparison of values to those of the PBS control. Established methods for detecting SSBs have not been adequately characterized for pH effects on DNA structure and chemistry and also lack a high specificity for SSBs, primarily because of artifactual SSB formation. […] The accumulation of SSBs leads to PARP-1 over-activation and the consumption of NAD+, which is indirectly monitored in living cells through the measurement of intracellular NAD(P)H depletion using tetrazolium salts, such as XTT, during chemical exposure (Tano et al., DNA Repair, 6, 869-875 (2007)). […]"}, "Pol β null cells [2]": {"system": "Pol β null cells", "experiment": "Alkaline gel electrophoresis with or without OTX of DNA from exposed Pol β null cells", "format": "cell-based, chicken", "conditions": "1 mM MMS, 1-4 hours", "method": "(§1) DT40 and Pol β null cells were seeded into 100 cm dishes and allowed to divide overnight to reach the density of 1×10^6 cells/mL. Cells were exposed to a continuous treatment of 1 mM methyl methanesulfonate (MMS; Aldrich) for up to 4 hours. Control cells received 1× phosphate buffered saline (PBS) for 0.5 hour. After incubation, cells were harvested, washed with chilled 1× PBS, pelleted, and stored at −80° C. until DNA isolation. Using this protocol, DT40 cells were also incubated in the absence of chemical to obtain a stock of untreated DNA.\nDNA was extracted using a PureGene® DNA extraction kit (Gentra Systems. Inc.) with modifications as described previously (Nakamura et al., J. Biol. Chem., 275, 5323-5328 (2000)).\nAn alkaline gel electrophoresis protocol (AGE) (Drouin et al., in: Technologies for Detection of DNA Damage and Mutations (G. P. Pfeifer, ed.). Plenum Press, New York, N.Y., pp. 37-43 (1996)) with modifications was used to assess SSBs and ALSs in DNA from exposed cells. The 0.7% agarose gel was prepared in gel buffer (50 mM NaCl, 1 mM EDTA, pH 7) and deionized water. After forming, the gel was soaked in mild alkaline running buffer (30 mM NaOH, 1 mM EDTA, pH 12.4) for at least 30 minutes. Equal amounts of DNA (3-5 μg) were incubated for 1 hour at 37° C. in the presence or absence of 30 mM OTX (Aldrich) in 50 mM HEPES buffer. […]"}, "DT40 cells [3]": {"system": "DT40 cells", "format": "cell-based", "conditions": "chicken, 1 mM", "method": "as §1"}, "Pol β null cells [4]": {"system": "Pol β null cells", "format": "cell-based, chicken", "method": "as §1"}, "isolated, genomic DNA": {"system": "isolated, genomic DNA", "experiment": "SSB formation at N7-methylguanine adducts, isolated DNA, NaOH or piperidine denaturation, AGE", "conditions": "DNA + 1 mM MMS + 30 mM OTX 1 hour", "method": "To visualize the conversion of MMS induced N7-methylguanine (N7-meG) adducts into SSBs, the AGE assay described above was modified with a piperidine treatment (Mattes et. al., Biochem. Biophys. Acta 868:71-76 (1986)). Equal amounts of DNA (25 μg) were incubated for 1 hour at 37° C. in the presence of 30 mM OTX (Aldrich) and 1 mM MMS or PBS in 50 mM HEPES buffer (pH 7). Treated DNA was washed and collected using microcon YM-3 centrifugal filter devices (Amicon Bioseparations). The treated DNA was then incubated with alkaline buffer (pH≧12.8) that contained either 100 mM NaOH or 1 M piperidine for 20 minutes at 37° C. This DNA was then washed and collected by centrifugal filter devices, and the concentrations determined by UV. DNA (3-5 μg) from each sample received loading dye and was loaded onto a 0.7% agarose gel prepared as previously described. Electrophoresis, neutralization, staining, and image analysis were performed as described above.\nALSs such as N7-methylguanine (N7-meG), the predominate lesion formed by monofunctional alkylating agents, are generated during MMS exposure (Wyatt et. al., Chem. Res. Toxicol. 19: 1580-1594 (2006)). In the absence of OTX, ALSs other than AP sites may contribute to SSBs detected during AGE. […]"}}, "data": [{"smiles": "COS(C)(=O)=O", "note": "[MMS, methyl methanesulfonate]", "values": [{"measurement": "intracellular NAD(P)H levels", "setting": "DT40 cells [1]", "value": "time-dependent decrease in intracellular NAD(P)H levels"}, {"measurement": "SSB accumulation (DNA migration) by OTX-AGE", "setting": "Pol β null cells [2]", "value": "clear time-dependent increase in DNA migration"}, {"measurement": "AP sites (ASB assay) compared to control", "setting": "DT40 cells [3]", "value": "time-dependent, significant (p<0.01 for all time points, student t-test) increase in AP sites"}, {"measurement": "AP site formation (ASB assay) compared with parental DT40 cells", "setting": "Pol β null cells [4]", "value": "more massive AP site formation"}, {"measurement": "AP sites (ASB assay) compared to control", "setting": "Pol β null cells [4]; chicken, 1 mM", "value": "time-dependent, significant (p<0.01 for all time points, student t-test) increase in AP sites"}, {"measurement": "amount of SSBs after NaOH induced DNA denaturation, MMS treated vs control DNA", "setting": "isolated, genomic DNA; 100 mM NaOH 20 minutes", "value": "no difference in the amount of SSBs"}, {"measurement": "DNA migration after piperidine treatment", "setting": "isolated, genomic DNA; 1 M piperidine 20 minutes, vs PBS control", "value": "notable increase in DNA migration"}]}]}
